Data reported in US20230391786A1, “cGAS INHIBITORS” (Eli Lilly and Company, priority 2022, published 2023).

target: recombinant human cGAS (Homo sapiens (Human), UniProt Q8N884); experiment: In vitro inhibition assay of cGAS activity (cGAMP production, RapidFire mass spectrometry); assay type: biochemical; conditions: 10 nM recombinant human cGAS, 60 nM 75-bp dsDNA, ATP, GTP, room temperature 3 hours, read-out: IC50 (μM), In vitro inhibition assay for Compounds 1-94
Experimental: Expression and Purification of Recombinant cGAS Protein: Insert cDNA encoding full-length of human cGAS into a modified bacterial expression vector containing an in-frame His6-tag. Induce the E. coli strain BL21(DE3) harboring the plasmid with 1 mM IPTG (Isopropyl β-D-1-thiogalactopyranoside) at 18° C. overnight. Purify the His6-tagged cGAS protein over HISpur Ni-NTA resin in the presence of benzonase and RNase followed by Superdex 200 size exclusion chromatography with storage buffer (50 mM Tris-HCl pH 7.5, 300 mM NaCl, 1 mM DTT, 10% glycerol).
In vitro inhibition assay of cGAS activity: Add a 5 μL mixture containing 10 mM Tris-Cl pH 7.5, 50 mM NaCl, 5 mM MgCl2, 1 mM DTT, 0.01% Triton X-100, 60 nM 75-bp dsDNA, […], 50 μM GTP, 10 nM of recombinant human cGAS, and serial dilutions of a test compound in DMSO to a 384-well plate and incubate at room temperature for 3 hours. Quench the reaction by the addition of 100 μL of stop solution containing 0.1% formic acid and 0.1 μM internal standard (3′3′-difluoro cGAMP). Measure the amount of cGAMP produced by RapidFire 365 mass spectrometry and evaluate inhibitory effect of a compound by plotting percent specific inhibition of cGAMP production against log concentration of the test compound. Calculate IC50 values using a 4-parameter non-linear logistic equation (y=(S0+((SInf−S0)/(1+((qAC50/x)^nHill))))).

recombinant human cGAS, sequence (Q8N884 whole entry): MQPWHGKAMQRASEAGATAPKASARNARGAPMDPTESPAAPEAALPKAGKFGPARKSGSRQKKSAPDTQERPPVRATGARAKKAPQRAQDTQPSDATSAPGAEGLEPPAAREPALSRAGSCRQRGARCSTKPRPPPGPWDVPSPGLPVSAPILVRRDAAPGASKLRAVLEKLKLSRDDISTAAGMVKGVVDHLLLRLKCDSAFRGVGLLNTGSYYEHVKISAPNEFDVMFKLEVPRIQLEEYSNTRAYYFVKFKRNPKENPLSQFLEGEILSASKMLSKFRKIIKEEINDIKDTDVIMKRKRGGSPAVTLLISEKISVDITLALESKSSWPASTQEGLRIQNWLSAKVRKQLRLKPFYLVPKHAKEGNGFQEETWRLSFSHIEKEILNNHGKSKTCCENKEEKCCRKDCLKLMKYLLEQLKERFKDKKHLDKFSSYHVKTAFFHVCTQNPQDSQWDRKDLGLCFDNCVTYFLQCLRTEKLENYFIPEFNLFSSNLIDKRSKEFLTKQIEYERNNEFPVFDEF

First: O=C(O)C1CCn2c(c(-c3cn[nH]c3)c3ccc(Cl)c(Cl)c32)C1 (single isomer, unassigned) [Example 13, 3,4-Dichloro-10-(1H-pyrazol-4-yl)-6,7,8,9-tetrahydropyrido[1,2-a]indole-8-carboxylic acid]
Second: O=C(O)C1CCCn2c(c(-c3cn[nH]c3)c3ccc(Cl)c(Cl)c32)C1 (single isomer, unassigned) [Example 24, 3,4-Dichloro-11-(1H-pyrazol-4-yl)-7,8,9,10-tetrahydro-6H-azepino[1,2-a]indole-9-carboxylic acid]
The IC50 of the first is 7.1-fold lower: 0.0117 µM for the first, 0.0834 µM for the second. The first is the more potent here.

`O=C(O)C1CCn2c(c(-c3cn[nH]c3)c3ccc(Cl)c(Cl)c32)C1` (single isomer, unassigned) [Example 14, 3,4-Dichloro-10-(1H-pyrazol-4-yl)-6,7,8,9-tetrahydropyrido[1,2-a]indole-8-carboxylic acid] and `O=C(O)C1CCCn2c(c(-c3cn[nH]c3)c3ccc(Cl)c(Cl)c32)C1` (single isomer, unassigned) [Example 25, 3,4-Dichloro-11-(1H-pyrazol-4-yl)-7,8,9,10-tetrahydro-6H-azepino[1,2-a]indole-9-carboxylic acid] are within 1.5-fold of each other in IC50: 0.0309 µM for the first, 0.0412 µM for the second.

First: OCC1CCn2c(c(-c3cn[nH]c3)c3ccc(Cl)c(Cl)c32)C1 (single isomer, unassigned) [Example 15, [3,4-Dichloro-10-(1H-pyrazol-4-yl)-6,7,8,9-tetrahydropyrido[1,2-a]indol-8-yl]methanol]
Second: OC1CCc2c(-c3cn[nH]c3)c3ccc(Cl)c(Cl)c3n2C1 (single isomer, unassigned) [Example 18, 3,4-Dichloro-10-(1H-pyrazol-4-yl)-6,7,8,9-tetrahydropyrido[1,2-a]indol-7-ol]
The IC50 of the first is 1.9-fold higher: 0.289 µM for the first, 0.152 µM for the second.

`OCC1CCn2c(c(-c3cn[nH]c3)c3ccc(Cl)c(Cl)c32)C1` (single isomer, unassigned) [Example 16, [3,4-Dichloro-10-(1H-pyrazol-4-yl)-6,7,8,9-tetrahydropyrido[1,2-a]indol-8-yl]methanol] and `OC1CCc2c(-c3cn[nH]c3)c3ccc(Cl)c(Cl)c3n2C1` (single isomer, unassigned) [Example 19, 3,4-Dichloro-10-(1H-pyrazol-4-yl)-6,7,8,9-tetrahydropyrido[1,2-a]indol-7-ol] are within 1.5-fold of each other in IC50: 0.0674 µM for the first, 0.0663 µM for the second.

First: CC(=O)NC1CCc2c(-c3cn[nH]c3)c3ccc(Cl)c(Cl)c3n2C1 (single isomer, unassigned) [Example 20, N-[3,4-Dichloro-10-(1H-pyrazol-4-yl)-6,7,8,9-tetrahydropyrido[1,2-a]indol-7-yl]acetamide]
Second: CS(=O)(=O)NC1CCc2c(-c3cn[nH]c3)c3ccc(Cl)c(Cl)c3n2C1 (single isomer, unassigned) [Example 22, N-[3,4-Dichloro-10-(1H-pyrazol-4-yl)-6,7,8,9-tetrahydropyrido[1,2-a]indol-7-yl]methanesulfonamide]
The IC50 of the first is 6.9-fold higher: 0.155 µM for the first, 0.0225 µM for the second. The second is the more potent here.

Compared with `CC(=O)NC1CCc2c(-c3cn[nH]c3)c3ccc(Cl)c(Cl)c3n2C1` (single isomer, unassigned) [Example 21, N-[3,4-Dichloro-10-(1H-pyrazol-4-yl)-6,7,8,9-tetrahydropyrido[1,2-a]indol-7-yl]acetamide], `CS(=O)(=O)NC1CCc2c(-c3cn[nH]c3)c3ccc(Cl)c(Cl)c3n2C1` (single isomer, unassigned) [Example 23, N-[3,4-Dichloro-10-(1H-pyrazol-4-yl)-6,7,8,9-tetrahydropyrido[1,2-a]indol-7-yl]methanesulfonamide] is 3.7-fold higher in IC50: 0.0243 µM for the first, 0.0887 µM for the second.

Going from `CC(=O)NC1CCn2c1c(-c1cn[nH]c1)c1ccc(Cl)c(Cl)c12` (single isomer, unassigned) [Example 26, N-(5,6-Dichloro-9-(1H-pyrazol-4-yl)-2,3-dihydro-1H-pyrrolo[1,2-a]indol-1-yl)acetamide] to `O=C1Cn2c(c(-c3cn[nH]c3)c3ccc(Cl)c(Cl)c32)CN1` [Example 8, 6,7-Dichloro-10-(1H-pyrazol-4-yl)-2,4-dihydro-1H-pyrazino[1,2-a]indol-3-one], the IC50 rises from 0.0229 µM to 0.0531 µM (2.3-fold). The first is the more potent here.

First: CC(=O)NC1CCn2c1c(-c1cn[nH]c1)c1ccc(Cl)c(Cl)c12 (single isomer, unassigned) [Example 27, N-(5,6-Dichloro-9-(1H-pyrazol-4-yl)-2,3-dihydro-1H-pyrrolo[1,2-a]indol-1-yl)acetamide]
Second: O=C1NCCn2c1c(-c1cn[nH]c1)c1ccc(Cl)c(Cl)c12 [Example 31, 6,7-Dichloro-10-(1H-pyrazol-4-yl)-3,4-dihydro-2H-pyrazino[1,2-a]indol-1-one]
The IC50 of the first is 3.4-fold higher: 0.158 µM for the first, 0.0462 µM for the second.

Compared with `Clc1ccc2c(-c3cn[nH]c3)c[nH]c2c1Cl` [Example 1, 6,7-Dichloro-3-(1H-pyrazol-4-yl)-1H-indole], `Clc1c(Br)ccc2c(-c3cn[nH]c3)c[nH]c12` [Example 30, 6-bromo-7-chloro-3-(1H-pyrazol-4-yl)-1H-indole] is 2.5-fold lower in IC50: 0.0863 µM for the first, 0.034 µM for the second. The second is the more potent here.

First: Cc1[nH]c2c(Cl)c(Cl)ccc2c1-c1cn[nH]c1 [Example 2, 6,7-Dichloro-2-methyl-3-(1H-pyrazol-4-yl)-1H-indole]
Second: CC(=O)NCc1[nH]c2c(Cl)c(Cl)ccc2c1-c1cn[nH]c1 [Example 5, N-[[6,7-Dichloro-3-(1H-pyrazol-4-yl)-1H-indol-2-yl]methyl]acetamide]
The IC50 of the first is 2.3-fold higher: 0.0557 µM for the first, 0.0246 µM for the second.

`Cc1c(-c2cn[nH]c2)c2ccc(Cl)c(Cl)c2n1C` [Example 3, 6,7-Dichloro-1,2-dimethyl-3-(1H-pyrazol-4-yl)indole] and `O=C1CCc2c(-c3cn[nH]c3)c3ccc(Cl)c(Cl)c3n2C1` [Example 17, 3,4-Dichloro-10-(1H-pyrazol-4-yl)-8,9-dihydro-6H-pyrido[1,2-a]indol-7-one] are within 1.5-fold of each other in IC50: 0.0614 µM for the first, 0.0427 µM for the second.

`Cc1[nH]c2c(Cl)c(Cl)ccc2c1-n1ccnc1` [Example 4, 6,7-Dichloro-3-imidazol-1-yl-2-methyl-1H-indole] and `Clc1ccc2c(-n3ccnc3)c[nH]c2c1Cl` [Example 29, 6,7-Dichloro-3-imidazol-1-yl-1H-indole] are within 1.5-fold of each other in IC50: 0.0641 µM for the first, 0.0447 µM for the second.

`Clc1ccc2c(-c3cn[nH]c3)c(CNc3ccon3)[nH]c2c1Cl` [Example 6, N-[[6,7-Dichloro-3-(1H-pyrazol-4-yl)-1H-indol-2-yl]methyl]isoxazol-3-amine] and `Clc1ccc2c(-c3cn[nH]c3)c(CNc3nncs3)[nH]c2c1Cl` [Example 10, N-[[6,7-Dichloro-3-(1H-pyrazol-4-yl)-1H-indol-2-yl]methyl]-1,3,4-thiadiazol-2-amine] are within 1.5-fold of each other in IC50: 0.0578 µM for the first, 0.0629 µM for the second.

`O=C1Cn2c(c(-c3cn[nH]c3)c3ccc(Cl)c(Cl)c32)CCN1` [Example 7, 7,8-Dichloro-11-(1H-pyrazol-4-yl)-1,2,3,5-tetrahydro-[1,4]diazepino[1,7-a]indol-4-one] and `O=C1c2c(-c3cn[nH]c3)c3ccc(Cl)c(Cl)c3n2CCN1CCO` [Example 32, 6,7-Dichloro-2-(2-hydroxyethyl)-10-(1H-pyrazol-4-yl)-3,4-dihydropyrazino[1,2-a]indol-1-one] are within 1.5-fold of each other in IC50: 0.0436 µM for the first, 0.0411 µM for the second.

Compared with `Cc1nnc(NCc2[nH]c3c(Cl)c(Cl)ccc3c2-c2cn[nH]c2)s1` [Example 11, N-[[6,7-Dichloro-3-(1H-pyrazol-4-yl)-1H-indol-2-yl]methyl]-5-methyl-1,3,4-thiadiazol-2-amine], `Cn1cnnc1NCc1[nH]c2c(Cl)c(Cl)ccc2c1-c1cn[nH]c1` [Example 12, N-[[6,7-Dichloro-3-(1H-pyrazol-4-yl)-1H-indol-2-yl]methyl]-4-methyl-1,2,4-triazol-3-amine] is 1.5-fold higher in IC50: 0.0423 µM for the first, 0.0649 µM for the second.

`O=C(Cc1[nH]c2c(Cl)c(Cl)ccc2c1-c1cn[nH]c1)NCc1cnccn1` [Example 28, 2-[6,7-Dichloro-3-(1H-pyrazol-4-yl)-1H-indol-2-yl]-N-(pyrazin-2-ylmethyl)acetamide] and `O=C(O)Cn1cc(-n2cc(-c3cn[nH]c3)c3ccc(Cl)c(Cl)c32)cn1` [Example 36, 2-[4-[6,7-Dichloro-3-(1H-pyrazol-4-yl)indol-1-yl]pyrazol-1-yl]acetic acid] are within 1.5-fold of each other in IC50: 0.064 µM for the first, 0.0535 µM for the second.

`NCCN1CCn2c(c(-c3cn[nH]c3)c3ccc(Cl)c(Cl)c32)C1=O` [Example 33, 2-(2-Aminoethyl)-6,7-dichloro-10-(1H-pyrazol-4-yl)-3,4-dihydropyrazino[1,2-a]indol-1-one] and `O=C(O)CCn1cc(-c2cn[nH]c2)c2ccc(Cl)c(Cl)c21` [Example 35, 3-[6,7-Dichloro-3-(1H-pyrazol-4-yl)indol-1-yl]propanoic acid] are within 1.5-fold of each other in IC50: 0.0825 µM for the first, 0.0737 µM for the second.

`Clc1ccc2c(-c3cn[nH]c3)cn(-c3cn[nH]n3)c2c1Cl` [Example 34, 6,7-Dichloro-3-(1H-pyrazol-4-yl)-1-(2H-triazol-4-yl)indole] showed an IC50 of 0.0691 µM.

same assay, conditions: 10 nM recombinant human cGAS, 60 nM 75-bp dsDNA, ATP, GTP, room temperature 3 hours, read-out: IC50 (μM), In vitro inhibition assay for Compounds 95-348

For `O[C@@H]1CC[C@@H](Oc2cc(Cl)c(Cl)c3[nH]cc(-c4cn[nH]c4)c23)C1` (racemic) [Example 99, trans-3-((6,7-Dichloro-3-(1H-pyrazol-4-yl)-1H-indol-4-yl)oxy)cyclopentan-1-ol (racemic mixture)], the IC50 was 0.0593 µM.
